Each structure is given as a SMILES string. Where only a bound is given, the exact number is not on record here.

The target of data set [1] is CDK19/CycC (Homo sapiens, UniProt Q9BWU1). The data set is described as follows: LanthaScreen europium kinase binding assay (FRET displacement), CDK19. The settings on record: for CDK19 Selectivity: CDK19/CDK8 selectivity based on IC50 values; for IC50: his-tagged CDK19/CycC 5 nM, tracer 10 nM, 3 h incubation. In a few lines: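 His-tagged CDK19/CycC (5 nM) preincubated 30 min with 10 nM Alexa Fluor 665 ATP-site tracer, 2 nM biotin anti-his antibody and 2 nM europium-streptavidin, then titrated with compound (10^−4.5 to 10^−8 M). TR-FRET (ex 317, em 620/665 nm) read after 3 h at room temperature; duplicates, three independent runs, DMSO-normalized IC50.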
A general note: Time-resolved FRET reads energy transfer from a long-lived donor to a nearby acceptor.

For data set [2], the target named is CDK8 (Homo sapiens, UniProt P49336). The data set is described as follows: LanthaScreen europium kinase binding assay (FRET displacement), CDK8.
Data set [3] deals with human foreskin fibroblast 2088 cells. The data set is described as follows: Cell death assay in normal fibroblasts (LD50). The settings on record: FIG. 1B. In kind it is cell-based. The protocol: (§1) Triple-Negative Breast Cancer Cell Death Assay to Measure LD50: The efficacy and selectivity of the disclosed compounds was evaluated in a TNBC cell line assay (MDA-MB-231) and/or human foreskin fibroblast 2088 cells, as was protein binding to human serum and microsomal stability of the disclosed compounds, as described herein.
(§2) Cells from a TNBC cell line (MDA-MB-231) (approximately 100,000 cells) and/or human foreskin fibroblast 2088 cells were seeded into each well of a 6-welled polystyrene treated tissue culture plate and were allowed to attach for 18 h before treatment with the test compound. Cells were then treated every 24 h with a fresh batch of media containing the test compound at one of the respective concentration(s) (Log10 Molar [C]): −5.0, −5.5, −6.0, −6.5, −7.0, −7.5 so that a complete dose-response could be calculated.
(§3) After 48 h of treatment, adherent cells were fixed with a 4% paraformaldehyde solution and stained with Hoechst 33342 nuclear dye (5 μg/mL). Each well was imaged at 10× magnification on a Keyence BZ-X710 microscope and live cell counts were performed in triplicate for each condition using automated ImageJ computational software. LD50 values represent the percentage of live cells after treatment with the test compound, which was calculated after normalization to the DMSO only treated control group.

The subject of data set [4] is MDA-MB-231 TNBC cells. The data set is described as follows: Triple-negative breast cancer cell death assay (LD50). In kind it is cell-based. The conditions noted are these: MDA-MB-231, 48 h treatment, live cell counts normalized to DMSO. How it is done: as §1, §2, §3
Data set [5] is described as follows: Liver microsome stability assay (Cyprotex), human. The data set is classed as in vitro ADME. The conditions noted are these: human liver microsomes. The protocol:
(§4) Microsome Assay to Measure Stability: The stability of the compounds was evaluated using a liver cell microsome assay commercially available from Cyprotex (Watertown, MA) (https://www.cyprotex.com/admepk/in-vitro-metabolism/microsomal-stability).
For orientation: Liver microsomes are a subcellular fraction often used to study metabolism.

Data set [6] is described as follows: Liver microsome stability assay (Cyprotex), mouse. In kind it is in vitro ADME. The settings on record: mouse liver microsomes. The protocol:
as §4

Chain of CDK8 (P49336 whole entry): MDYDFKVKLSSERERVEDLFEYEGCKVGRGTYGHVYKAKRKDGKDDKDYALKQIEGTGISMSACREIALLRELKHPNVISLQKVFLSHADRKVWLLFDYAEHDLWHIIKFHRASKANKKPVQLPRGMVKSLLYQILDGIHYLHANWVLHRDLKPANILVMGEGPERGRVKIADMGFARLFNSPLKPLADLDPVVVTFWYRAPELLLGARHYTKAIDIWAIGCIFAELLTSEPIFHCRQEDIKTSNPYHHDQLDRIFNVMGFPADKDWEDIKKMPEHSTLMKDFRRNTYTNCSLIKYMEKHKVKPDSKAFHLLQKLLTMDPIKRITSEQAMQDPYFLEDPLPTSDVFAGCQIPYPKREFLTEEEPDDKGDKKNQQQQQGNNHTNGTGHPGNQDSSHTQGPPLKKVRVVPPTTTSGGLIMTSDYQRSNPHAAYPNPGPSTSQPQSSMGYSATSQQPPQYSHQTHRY
Chain of CDK8 (P24863 whole entry partner): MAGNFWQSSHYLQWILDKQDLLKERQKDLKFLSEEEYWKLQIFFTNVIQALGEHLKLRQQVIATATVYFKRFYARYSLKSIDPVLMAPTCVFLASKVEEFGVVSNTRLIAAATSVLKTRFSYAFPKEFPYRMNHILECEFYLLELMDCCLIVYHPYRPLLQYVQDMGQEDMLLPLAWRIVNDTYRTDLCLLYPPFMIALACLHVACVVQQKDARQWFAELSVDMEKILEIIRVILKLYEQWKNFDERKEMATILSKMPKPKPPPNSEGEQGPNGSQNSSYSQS
Chain of CDK19/CycC (Q9BWU1 whole entry): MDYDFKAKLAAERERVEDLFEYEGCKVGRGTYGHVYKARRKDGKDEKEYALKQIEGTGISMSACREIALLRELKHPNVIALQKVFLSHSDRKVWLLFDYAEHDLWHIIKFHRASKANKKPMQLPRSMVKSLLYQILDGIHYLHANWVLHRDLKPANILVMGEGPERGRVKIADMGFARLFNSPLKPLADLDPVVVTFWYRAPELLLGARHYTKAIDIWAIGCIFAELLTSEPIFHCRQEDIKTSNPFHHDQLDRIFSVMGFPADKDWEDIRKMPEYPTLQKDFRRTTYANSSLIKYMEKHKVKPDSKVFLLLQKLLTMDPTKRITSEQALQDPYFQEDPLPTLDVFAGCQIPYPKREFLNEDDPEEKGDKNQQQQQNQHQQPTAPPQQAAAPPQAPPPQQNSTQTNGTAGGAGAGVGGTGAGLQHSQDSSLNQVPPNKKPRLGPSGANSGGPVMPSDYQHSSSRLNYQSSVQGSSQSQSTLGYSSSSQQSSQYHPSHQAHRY
Chain of CDK19/CycC (P24863 whole entry partner): as the sequence (P24863 whole entry partner) above

What is called IC50 is the point on the concentration scale where inhibition reaches its midpoint. As for `CNC(=O)c1cc(Nc2cnc(Nc3ccc(CC(C)C)cc3)nc2)ccn1` [Compound A47], in data set [1], the “CDK19 Selectivity” value was found to be 2.4 and the IC50 was 308 nM. This molecule showed an IC50 in data set [2] of 737 nM. In addition, the “concentration at which significant fibroblast cell death was observed” value in data set [3] is listed as 10,000 nM.

Turning to `Cc1cnccc1Nc1cnc(Nc2ccc(CC(C)C)cc2)nc1` [Compound A21], the “CDK19 Selectivity” value in data set [1] was 15. For the same molecule, the IC50 in data set [1] was 38 nM; in data set [2], 564 nM. Also, the “MDA LD50” value in data set [4] amounted to 178 nM. Also, the “Human Microsome Stability” value in data set [5] came to 159.0 μL/min/mg protein. The “Mouse Microsome Stability” value in data set [6] is listed as 93.0 μL/min/mg protein.

With `CC(C)Cc1ccc(Nc2ncc(Nc3ccnc4ccccc34)cn2)cc1` [Compound A11], the “CDK19 Selectivity” value in data set [1] came to 0.9. For the same molecule, the IC50 came out at 25 nM in data set [1] and 22 nM in data set [2]. Also, the “MDA LD50” value in data set [4] was 180 nM. In data set [5], the “Human Microsome Stability” value is 28.7 μL/min/mg protein. In addition, the “Mouse Microsome Stability” value in data set [6] worked out at 31.3 μL/min/mg protein.

In the case of `CC(C)Cc1ccc(Nc2ncc(Nc3ccncc3C3CC3)cn2)cc1` [Compound A164], in data set [1], the “CDK19 Selectivity” value came out at 3 and the IC50 came out at 75 nM. The molecule also gave an IC50 in data set [2] of 226 nM.

Regarding `Cc1cc(-c2cnc(Nc3ccc(CC(C)C)cc3)nc2)cc(C)n1` [Compound A101, 5-(2,6-dimethylpyridin-4-yl)-N-(4-isobutylphenyl)pyrimidin-2-amine], in data set [1], the “CDK19 Selectivity” value was 4.7 and the IC50 was determined as 822 nM. The same molecule yielded an IC50 in data set [2] of 3840 nM.

For the molecule `CC(C)Cc1ccc(Nc2ncc(Nc3ccncc3C#N)cn2)cc1` [Compound A149], the 50% inhibitory concentration (IC50) in data set [1] was no more than 2.5 nM; in data set [2] it was 3 nM.

As for `Fc1ccc(Nc2ncc(Nc3ccncc3)cn2)cc1` [Compound A7], the IC50 came out at 10000 nM in data set [1] and 14000 nM in data set [2].

For `Cc1cnccc1Nc1cnc(Nc2ccc(CC(C)C)cc2C)nc1` [Compound A165], in data set [1], the “CDK19 Selectivity” value was found to be 4 and the IC50 came out at 57 nM. Further, the IC50 in data set [2] was determined as 238 nM.

Consider `Cc1cnccc1C(=O)c1cnc(Nc2ccc(CC(C)C)cc2)nc1` [Compound A73, (2-((4-isobutylphenyl)amino)pyrimidin-5-yl) (3-methylpyridin-4-yl) methanone], for which the “CDK19 Selectivity” value in data set [1] is no less than 6. The IC50 in data set [1] was no more than 2.5 nM; in data set [2] it was 16 nM.

Take `CC(C)Cc1ccc(Nc2ccc(Nc3ccncc3)cn2)cc1` [Compound A85]: in data set [1], the “CDK19 Selectivity” value is 3.8 and the IC50 turned out to be 72 nM. The molecule further registered an IC50 in data set [2] of 268 nM.

Consider `CC(C)Cc1ccc(Nc2ncc(Nc3cccnc3)cn2)cc1` [Compound A52, N2-(4-isobutylphenyl)-N5-(pyridin-3-yl)pyrimidine-2,5-diamine], for which, in data set [1], the “CDK19 Selectivity” value is 5 and the IC50 turned out to be 704 nM. Moreover, in data set [2], the IC50 was determined as 3550 nM.

Consider `CC(C)Cc1ccc(Nc2ncc(-c3ccc(C#N)cc3)cn2)cc1` [Compound A89], for which the IC50 in data set [1] and in data set [2] was 10000 nM each time.

On to `CC(C)Cc1ccc(Nc2ncc(C(=O)c3cccnc3)cn2)cc1` [Compound A133], for which, in data set [1], the “CDK19 Selectivity” value is on record as 3 and the IC50 was determined as 265 nM. The molecule further returned an IC50 in data set [2] of 797 nM.

`CC(C)Cc1ccc(Nc2ncc(Nc3cc(F)ncc3F)cn2)cc1` [Compound A175]: the “CDK19 Selectivity” value in data set [1] is 4. Besides, the half-maximal inhibitory concentration (IC50) was 36 nM in data set [1] and 129 nM in data set [2].

As for `Cc1cc(Nc2cnc(Nc3ccc(CC(C)C)cc3)nc2)c(C)cn1` [Compound A65], in data set [1], the “CDK19 Selectivity” value worked out at 2 and the IC50 was 1160 nM. In data set [2], this molecule yielded an IC50 of 2270 nM.

Regarding `CC(C)Cc1ccc(Nc2ncc(Nc3ccncc3OC3CCCNC3)cn2)cc1` (centres unmarked) [Compound A55], in data set [1], the “CDK19 Selectivity” value was 1.1 and the IC50 stood at 40 nM. The IC50 in data set [2] turned out to be 44 nM.

`CCc1cnccc1Nc1cnc(Nc2ccc(CC(C)C)cc2)nc1` [Compound A51]: in data set [1], the “CDK19 Selectivity” value is given as no less than 15 and the IC50 was no more than 2.5 nM. The molecule further returned an IC50 in data set [2] of 38 nM.

As to `CCCc1ccc(Nc2ncc(Nc3ccnc(C)c3)cn2)cc1` [Compound A10], in data set [1], the “CDK19 Selectivity” value is 3.1 and the IC50 was determined as 99 nM. Besides, in data set [2], the IC50 is 310 nM.

For `Cc1cc(Nc2cnc(Nc3cccc(CC(C)C)c3)nc2)cc(C)n1` [Compound A30], the IC50 in data set [1] and in data set [2] was 10000 nM each time.

Take `CC(C)Cc1ccc(Nc2ncc(-c3cccc(C#N)c3)cn2)cc1` [Compound A92]: in data set [1], the “CDK19 Selectivity” value is 3 and the IC50 was 335 nM. Besides, the IC50 in data set [2] amounted to 1020 nM.

Consider `CC(C)Cc1ccc(Nc2ncc(Nc3ccncc3C#Cc3ccccc3)cn2)cc1` [Compound A156], for which, in data set [1], the “CDK19 Selectivity” value amounted to 5 and the IC50 came out at 54 nM. This molecule displayed an IC50 in data set [2] of 248 nM.

With `CC(C)Cc1ccc(Nc2ncc(Nc3ccncc3OC3CCCC3)cn2)cc1` [Compound A53], in data set [1], the “CDK19 Selectivity” value is given as no less than 22 and the IC50 is no more than 2.5 nM. Besides, the IC50 in data set [2] was 56 nM. Also, the “MDA LD50” value in data set [4] came to 91 nM. Moreover, the “Human Microsome Stability” value in data set [5] worked out at 36 μL/min/mg protein. In addition, the “Mouse Microsome Stability” value in data set [6] was 19 μL/min/mg protein.

As to `Cc1cc(Nc2cnc(Nc3ccc(C4CC4)cc3)nc2)cc(C)n1` [Compound A18], the IC50 in data set [1] and in data set [2] was 10000 nM throughout.

Regarding `CC(C)Cc1ccc(Nc2ccc(-c3ccncc3)cn2)cc1` [Compound A80], in data set [1], the “CDK19 Selectivity” value is 3 and the IC50 worked out at 3330 nM. This molecule also returned an IC50 in data set [2] of 10000 nM.

Consider `COc1cc(Nc2cnc(Nc3cccc(CC(C)C)c3)nc2)ccn1` [Compound A33], for which, in data set [1], the “CDK19 Selectivity” value is given as 3 and the IC50 came out at 965 nM. Besides, in data set [2], the IC50 was found to be 2870 nM.

Consider `c1cc(Nc2cnc(Nc3ccc(C4CCCCC4)cc3)nc2)c(OC2CCCC2)cn1` [Compound A1], for which, in data set [1], the “CDK19 Selectivity” value was 1.2 and the IC50 is 69 nM. The IC50 in data set [2] turned out to be 59 nM.

On to `c1cc(Nc2cnc(Nc3ccc(C4CCC4)cc3)nc2)ccn1` [Compound A39], for which, in data set [1], the “CDK19 Selectivity” value turned out to be 2 and the 50% inhibitory concentration (IC50) turned out to be 9.5 nM. This molecule registered an IC50 in data set [2] of 19 nM. The “MDA LD50” value in data set [4] is 158 nM. Besides, in data set [5], the “Human Microsome Stability” value was 7.6 μL/min/mg protein. Further, the “Mouse Microsome Stability” value in data set [6] amounted to 38.6 μL/min/mg protein.

For the molecule `CC(C)Cc1ccc(Nc2ncc(Nc3ccncc3OC3CCCC3(C)C)cn2)cc1` (centres unmarked) [Compound A157], in data set [1], the “CDK19 Selectivity” value amounted to 1 and the IC50 stood at 67 nM. The same molecule had an IC50 in data set [2] of 64 nM.

Turning to `CC(C)Cc1ccc(Nc2ncc(Oc3ccncc3)cn2)cc1` [Compound A143], the “CDK19 Selectivity” value in data set [1] is 3. Moreover, the values for the IC50 in data set [1] and in data set [2] were 3000 nM and 10000 nM, respectively.

With `CC(C)Cc1ccc(Nc2ncc(-c3cccc(-c4ccncc4)c3)cn2)cc1` [Compound A155], in data set [1], the “CDK19 Selectivity” value was 3 and the IC50 turned out to be 6 nM. The IC50 in data set [2] turned out to be 19 nM.

For the molecule `Cc1cc(Nc2cnc(Nc3cccc(CC(C)C)c3)nc2)ccn1` [Compound A29], in data set [1], the “CDK19 Selectivity” value is on record as 2 and the IC50 turned out to be 991 nM. Further, the IC50 in data set [2] was determined as 2030 nM.

As to `COc1cc(CC(C)C)ccc1Nc1ncc(Nc2ccncc2)cn1` [Compound A36], the “CDK19 Selectivity” value in data set [1] is on record as 4.2. Moreover, the IC50 in data set [1] worked out at 123 nM; in data set [2] it was 513 nM.

These data come from patent US20240351996A1, “CDK19-SELECTIVE INHIBITORS, AND METHODS OF USE THEREOF” (CZ BIOHUB SF, LLC, priority 2022, published 2024).
